How the values were obtained:
narkotisierten Ratte = assay: blood-pressure-lowering effect in the anaesthetised rat; conditions: for Blutdrucksenkende Wirkung ED 20 %: Urethan-Narkose, dose lowering blood pressure by 20 %; for Tiere gestorben: 10 mg/kg, dead animals of 6; for ED20: Rattus norvegicus, iv, read-out: Blutdrucksenkende Wirkung ED 20 %
Method: (§1) Die Applikation der getesteten Substanzen erfolgt 10 min vor Isoproterenol an Gruppen von 3 bis 5 Katzen pro Dosis. […] Blutdrucksenkende Wirkung an der. narkotisierten Ratte. Zur Testung der blutdrucksenkenden Wirkung erhalten Gruppen von 3 bis 5 männlichen Sprague-Dawley-Ratten (Gewicht: 230 - 280 g) in Urethan-Narkose (1,78 g/kg) i.p.) die Substanz intravenös appliziert. Die Messung des Blutdrucks in der A.carotis erfolgt über Statham-Transducer. Als ED 20 % wird die Dosis ermittelt, welche den mittleren Carotisdruck um 20 % senkt. • 3. Antihypertensive Wirkung an spontan hypertonen Ratten. Die Substanzen werden Gruppen von 8 männlichen spontan hypertonen Okamoto-Ratten (Gewicht: 280 - 350 g) oral appliziert. Vor und zwei Stunden nach der Applikation wird der systolische Blutdruck am Rattenschwanz unblutig mit Hilfe von Piezokristallaufnehmern gemessen. Als ED 20 % wird unter Berücksichtigung der Nerte unbehandelter Kontrolltiere die Dosis bestimmt, welche den systolischen Druck um 20 % senkt. • 4. Akute Toxizität an der Maus Zur Bestimmung der akuten Toxizität (LD 50) werden die Substanzen Gruppen von je 10 weiblichen NMRI-Mäusen (Gewicht: 19 - 20 g) intraperitoneal appliziert. Die Beobachtungsdauer beträgt 1 Woche. Die Berechnung der wirksamen Dosen (s. 1.-3.) erfolgte aus den linearen Beziehungen zwischen den Logarithmen der Dosen und der Wirkung mit Hilfe der Regressionsanalyse. Die LD 50 (4.) wurden mit Hilfe der Probit-Analyse bestimmt.

[1] = test system: Isoproterenol--Tachycardie der narkotisierten Katze; assay: beta-sympatholytic effect on isoproterenol tachycardia in the anaesthetised cat; assay type: in vivo; conditions: for ß-Sympatholytische Wirkung R.W. (Relative Wirksamkeit): Propranolol = 1,00; for ED50: Felis catus, iv, read-out: ß-Sympatholytische Wirkung ED 50 %
Method: as §1, with “Akute Toxizität an der Maus Zur Bestimmung der akuten Toxizität (LD 50) werden die Substanzen Gruppen von je 10 weiblichen NMRI-Mäusen (Gewicht: 19 - 20 g) intraperitoneal appliziert.” left out, “Regressionsanalyse.” for “Regressionsanalyse. Die LD 50 (4.) wurden mit Hilfe der Probit-Analyse bestimmt.”

Maus = assay: in vivo; conditions: Maus, i.p., observation 1 week; 10080 min
Method: as §1, with “Akute Toxizität an der Maus Zur Bestimmung der akuten Toxizität (LD 50) werden die Substanzen Gruppen von je 10 weiblichen NMRI-Mäusen (Gewicht: 19 - 20 g) intraperitoneal appliziert.” left out, “Regressionsanalyse.” for “Regressionsanalyse. Die LD 50 (4.) wurden mit Hilfe der Probit-Analyse bestimmt.”

[2] = test system: spontan hypertonen Ratten; assay: antihypertensive effect in spontaneously hypertensive rats; assay type: in vivo, Okamoto-Ratten; conditions: spontan hypertone Ratten, oral
Method: as §1, with “Die LD 50 (4.) wurden mit Hilfe der Probit-Analyse bestimmt.” left out

in vivo = conditions: mouse, in vivo, ip
Method: as §1, with “Akute Toxizität an der Maus Zur Bestimmung der akuten Toxizität (LD 50) werden die Substanzen Gruppen von je 10 weiblichen NMRI-Mäusen (Gewicht: 19 - 20 g) intraperitoneal appliziert.” left out, “Regressionsanalyse.” for “Regressionsanalyse. Die LD 50 (4.) wurden mit Hilfe der Probit-Analyse bestimmt.”

Compound	Blutdrucksenkende Wirkung ED 20 % (narkotisierten Ratte; Ratte, i.v.)	ß-Sympatholytische Wirkung R.W. (Relative Wirksamkeit) ([1]; Katze, i.v.)	Tiere gestorben (narkotisierten Ratte; Ratte, i.v.) [von 6]	ED20 (narkotisierten Ratte) [mg/kg]	ED50 [1] [mg/kg]	LD50 at 168 h (in vivo) [mg/kg]	also measured
3-Äthyl-5-[2-(2-hydroxy-3-cyclopropylaminopropoxy)-styryl]-isoxazol [Verbindung 8]	0,83 mg/kg	0,9					ß-sympatholytische Wirksamkeit compared with Propranolol [1]: etwa wirkungsgleich; ß-Sympatholytische Wirkung ED 50 % ([1]; Katze, Hexobarbital-Narkose, i.v., dose inhibiting the isoproterenol heart-rate increase by 50 %): 0,12 mg/kg; Letalität LD 50 (Maus): 95 mg/kg
CC(C)NCC(O)COc1cccc2ccccc12 (centres unmarked) [Propranolol, reference compound]			2				Antihypertensive Wirkung ([2]; bis zu einer Dosis von 100 mg/kg): wirkungslos; Blutdrucksteigerung (narkotisierten Ratte; Ratte, i.v., bis 2,15 mg/kg): blutdrucksteigernd
Cc1cc(C=Cc2ccccc2OCC(O)CNC(C)C)on1 (centres unmarked) [Verbindung 6, 3-Methyl-5-[2-(2-hydroxy-3-isopropyl-aminopropoxy)-styryl]-isoxazol]		14,3		0.65	0.0077	108	
Cc1cc(C=Cc2ccccc2OCC(O)CNC(C)(C)C)on1 (centres unmarked) [Verbindung 7, 3-Methyl-5-[2-(2-hydroxy-3-tert.-butylaminopropoxy)-styryl]-isoxazol]	0,40 mg/kg	20,0	1	0.4	0.0055	123	ED20 ([2]; Rattus norvegicus, systolic pressure 2 h after dosing lowered by 20 %, read-out: Antihypertensive Wirkung ED 20 %): 14.5 mg/kg; ratio of the 10 mg/kg dose to the blood-pressure-lowering dose (0,4 mg/kg) (narkotisierten Ratte; Ratte, i.v.): 25 mal
CCc1cc(C=Cc2ccccc2OCC(O)CNC(C)(C)C)on1 (centres unmarked) [Verbindung 9, 3-Äthyl-5-[2-(2-hydroxy-3-tert.-butylaminopropoxy)-styryl]-isoxazol]		6,1		0.93		84	
C#CC(C)(C)NCC(O)COc1ccccc1C=Cc1cc(C)no1 (centres unmarked) [Verbindung 10]		6,5		1		247	
